Results: US12617762B2, “Carboxy derivatives with antiinflamatory properties” (Sitryx Therapeutics Limited, priority 2019, dated 2026)
Where two headings read alike, the source gives them in different places.

Experiments:
[1] = Hepatocyte stability assay, mouse; assay type: in vitro ADME; details: mouse, hepatocytes; for hepatocyte CLint at 10 μM: Hepatocyte stability Clint; for half-life at 10 μM: Hepatocyte stability T½
Description: (§1) Defrosted cryo-preserved hepatocytes (viability >70%) were used to determine the metabolic stability of a compound via calculation of intrinsic clearance (CIint; a measure of the removal of a compound from the liver in the absence of blood flow and cell binding). Clearance data are particularly important for in vitro work as they can be used in combination with in vivo data to predict the half-life and oral bioavailability of a drug.
(§2) The metabolic stability in hepatocytes assay involves a time-dependent reaction using both positive and negative controls. The cells were pre-incubated at 37° C. then spiked with test compound (and positive control); samples were taken at pre-determined time intervals and were analysed to monitor the change in concentration of the initial drug compound over 60 minutes. A buffer incubation reaction (with no hepatocytes present) acted as a negative control and two cocktail solutions, containing compounds with known high and low clearance values (verapamil/7-hydroxycoumarin and propranolol/diltiazem), acted as positive controls. • 1. The assay was run with a cell concentration of 0.5×10^6 cells/mL in Leibovitz buffer. • 2. All compounds and controls were run in duplicate. • 3. Compound concentration was 10 μM. • 4. All compounds and controls were incubated with both cells and buffer to show turnover was due to hepatic metabolism. • 5. All wells on the incubation plate had 326.7 μL of either cells or buffer added. • 6. Prior to assay, cell and buffer-only incubation plates were preincubated for 10 mins at 37° C. • 7. The assay was initiated by adding compounds, 3.3 μL of 1 mM in 10% DMSO—90% Buffer; final DMSO concentration was 0.1%. • 8. Samples were taken at regular timepoints (0, 5, 10, 20, 40, 60 min) until 60 mins. • 9. Sample volume was 40 μL and was added to 160 μL of crash solvent (acetonitrile with internal standard) and stored on ice. • 10. At the end of the assay, the crash plates were centrifuged at 3500 rpm for 20 mins at 4° C. • 11. 80 μL of clear supernatant was removed and mixed with 80 μL of deionised water before being analysed by LC-MS/MS.
(§3) Raw LC-MS/MS data was exported to, and analysed in, Microsoft Excel for determination of intrinsic clearance. The percentage remaining of a compound was monitored using the peak area of the initial concentration as 100%. Intrinsic clearance and half-life values were calculated using a graph of the natural log of percentage remaining versus the time of reaction in minutes.

[2] = Hepatocyte stability assay, human; assay type: in vitro ADME; details: human, hepatocytes; for hepatocyte CLint at 10 μM: Hepatocyte stability Clint; for half-life at 10 μM: Hepatocyte stability T½
Description: as §1, §2, §3

[3] = tested on: IL-1β cytokine output from THP-1s; assay: THP-1 AlphaLISA IL-1β cytokine inhibition assay; assay type: cell-based; details: for IC50: LPS then nigericin; for IL-1β lowering, result in words: THP-1 IL-1β assay
Protocol: Measuring Inhibitory Effects on IL-1β Cytokine Output from THP-1s
The cytokine inhibition profiles of compounds of formula (I) were determined in a differentiated THP-1 cell assay. All assays were performed in RPMI-1640 growth medium (Gibco), supplemented with 10% fetal bovine serum (FBS; Gibco), 1% penicillin-streptomycin and 1% sodium pyruvate unless specified otherwise. The IL-1β cytokine inhibition assay was run in a background of differentiated THP-1 cells as described below. All reagents described were from Sigma-Aldrich unless specified otherwise. Compounds were prepared as 10 mM DMSO stocks.
THP-1 cells were expanded as a suspension up to 80% confluence in appropriate growth medium. Cells were harvested, suspended, and treated with an appropriate concentration of phorbol 12-myristate 13-acetate (PMA) over a 72 hr period (37° C./5% CO2).
Following 72 hrs of THP-1 cell incubation, cellular medium was removed and replaced with fresh growth media containing 1% of FBS. Working concentrations of compounds were prepared separately in 10% FBS treated growth medium and pre-incubated with the cells for 30 minutes (37° C./5% CO2). Following the 30 minute compound pre-incubation, THP-1s were treated with an appropriate concentration of LPS and the cells were subsequently incubated for a 24 hr period (37° C./5% CO2). An appropriate final concentration of Nigericin was then dispensed into the THP-1 plates and incubated for 1 hour (37° C./5% CO2) before THP-1 supernatants were harvested and collected in separate polypropylene 96-well holding plates.
Reagents from an IL-1β and IL-6 commercial kit (Perkin Elmer) were prepared and run according to the manufacturer's instructions. Subsequently, fluorescence signal detection in a microplate reader was measured (EnVision® Multilabel Reader, Perkin Elmer).
Percentage inhibition was calculated per cytokine by normalising the sample data to the high and low controls used within each plate (+/− LPS respectively).

[4] = tested on: NRF2 (nuclear factor erythroid 2-related factor 2); assay: NRF2 +/-GSH activation assay (DiscoverX PathHunter NRF2 translocation kit, U2OS cells); assay type: cell-based; details: for NRF2 activation +GSH Emax / NRF2 activation −GSH Emax: normalised to DMF high control
Protocol: Measuring Compound Activation Effects on the Anti-Inflammatory Transcription Factor NRF2 in DiscoverX PathHunter NRF2 Translocation Kit
Potency and efficacy of compounds of formula (I) against the target of interest to activate NRF2 (nuclear factor erythroid 2-related factor 2) were determined using the PathHunter NRF2 translocation kit (DiscoverX). The NRF2 translocation assay was run using an engineered recombinant cell line, utilising enzyme fragment complementation to determine activation of the Keap1-NRF2 protein complex and subsequent translocation of NRF2 into the nucleus. Enzyme activity was quantified using a chemiluminescent substrate consumed following the formation of a functional enzyme upon PK-tagged NRF2 translocation into the nucleus.
The assay was run under both +/−GSH (glutathione) conditions to determine the sensitivity of the compounds' NRF2-activating abilities to attenuation by GSH.
Additionally, a defined concentration of DMF was used as the ‘High’ control to normalise test compound activation responses to.
U2OS PathHunter eXpress cells were thawed from frozen prior to plating. Following plating, U2OS cells were incubated for 24 hrs (37° C./5% CO2) in commercial kit provided cell medium.
Following 24 hrs of U2OS incubation, cells were directly treated with an appropriate final concentration of compound, for −GSH conditions or, for +GSH conditions, an intermediate plate containing 6× working concentrations of compound stocks was prepared in a 6 mM working concentration of GSH solution (solubilised in sterile PBS). Following a 30 minute compound-GSH pre-incubation (37° C./5% CO2) for +GSH treatment, plated U2OS cells were incubated with an appropriate final concentration of compound and GSH.
Following compound (+/−GSH) treatment, the U2OS plates were incubated for a further 6 hours (37° C./5% CO2) before detection reagent from the PathHunter NRF2 commercial kit was prepared and added to test plates according to the manufacturer's instructions. Subsequently, the luminescence signal detection was measured in a microplate reader (PHERAstar®, BMG Labtech).
Percentage activation was calculated by normalising the sample data to the high and low controls used within each plate (+/−DMF).

[5] = Homo sapiens, THP-1, differentiated THP-1 cells
[6] = +GSH, 30 minute compound-GSH pre-incubation, read-out: NRF2 activation +GSH EC50
[7] = −GSH, U2OS PathHunter cells, 6 hours compound treatment, read-out: NRF2 activation −GSH EC50

Compound | hepatocyte CLint at 10 μM [1] [µL/min/1e6 cells] | half-life at 10 μM [1] [min] | hepatocyte CLint at 10 μM [2] [µL/min/1e6 cells] | half-life at 10 μM [2] [min] | IC50 [3, 5] [µM] | EC50 [4, 6] [µM] | NRF2 activation +GSH Emax ([4]; +GSH) [%] | EC50 [4, 7] [µM] | NRF2 activation −GSH Emax ([4]; −GSH) [%] | IC50 ([3]; differentiated THP-1 cells) [µM] | IL-1β lowering, result in words [3]
C=C(Cc1nc(C(F)(F)c2ccc(Br)c(Cl)c2)no1)C(=O)O [Example 154, 2-((3-((4-bromo-3-chlorophenyl)difluoromethyl)-1,2,4-oxadiazol-5-yl)methyl)acrylic acid] | 203 | 7 | 41 | 35 | 9.5 | – | – | – | – | – | –
C=C(Cc1ccc(CCCCCCCC)nn1)C(=O)O [Example 116] | 290 | 5 | 60 | 25 | 27.9 | – | – | – | – | – | –
C=C(Cc1nc(-c2ccc(OCCCC)c(F)c2)no1)C(=O)O [Example 129, 2-((3-(4-butoxy-3-fluorophenyl)-1,2,4-oxadiazol-5-yl)methyl)acrylic acid] | > 460 | < 3 | 67 | 22 | 20.6 | – | – | – | – | – | –
C=C(Cc1nc(Cc2ccc(OC)c(Cl)c2)no1)C(=O)O [Example 163, 2-((3-(3-chloro-4-methoxybenzyl)-1,2,4-oxadiazol-5-yl)methyl)acrylic acid] | – | – | – | – | > 100 | > 100 | −10 | 61.4 | 61 | – | –
C=C(Cc1nc(-c2ccc(SC(F)(F)F)cc2)no1)C(=O)O [Example 158, 2-((3-(4-((trifluoromethyl)thio)phenyl)-1,2,4-oxadiazol-5-yl)methyl)acrylic acid] | – | – | – | – | > 31.6 | 2.9 | 196 | 2.6 | 189 | – | –
C=C(Cc1nc(-c2ccc(OC(C)CC)cc2)no1)C(=O)O (stereo in doubt) [Example 145, (S)-2-((3-(4-(sec-butoxy)phenyl)-1,2,4-oxadiazol-5-yl)methyl)acrylic acid] | – | – | – | – | – | 31.4 | 135 | 28.4 | 170 | 35.6 | –
C=C(Cc1nc(-c2ccc(OC3CCC3)cc2)no1)C(=O)O [Example 142, 2-((3-(4-cyclobutoxyphenyl)-1,2,4-oxadiazol-5-yl)methyl)acrylic acid] | – | – | – | – | > 100 | 26.9 | 168 | 23.3 | 189 | – | –
C=C(Cc1nc(CCCCCCC(F)(F)CF)no1)C(=O)O [Example 47, 2-((3-(7,7,8-trifluorooctyl)-1,2,4-oxadiazol-5-yl)methyl)acrylic acid] | – | – | – | – | > 100 | 47.1 | 86 | 41.4 | 131 | – | not effective
C=C(Cc1noc(-c2ccc(OCCCC)cc2)n1)C(=O)O [Example 96, 2-((5-(4-butoxyphenyl)-1,2,4-oxadiazol-3-yl)methyl)acrylic acid] | – | – | – | – | > 31.6 | 12.4 | 115 | 11.7 | 170 | – | –
C=C(Cc1nc(C2CCCCCC2)no1)C(=O)O [Example 65, 2-((3-cycloheptyl-1,2,4-oxadiazol-5-yl)methyl)acrylic acid] | – | – | – | – | > 100 | > 100 | 17 | > 100 | 50 | – | not effective
C=C(Cc1nc(-c2ccc(OCCC)c(Cl)c2)no1)C(=O)O [Example 130, 2-((3-(3-chloro-4-propoxyphenyl)-1,2,4-oxadiazol-5-yl)methyl)acrylic acid] | – | – | – | – | > 100 | 37.4 | 129 | 36.5 | 177 | – | –
C=C(Cc1nc(C2CCCCC2)no1)C(=O)O [Example 64, 2-((3-cyclohexyl-1,2,4-oxadiazol-5-yl)methyl)acrylic acid] | – | – | – | – | > 100 | > 100 | 17 | > 100 | 86 | – | not effective
C=C(Cc1nc(-c2ccc(OCCCC)c(C(F)(F)F)c2)no1)C(=O)O [Example 161, 2-((3-(4-butoxy-3-(trifluoromethyl)phenyl)-1,2,4-oxadiazol-5-yl)methyl)acrylic acid] | – | – | – | – | > 10 | 7.2 | 114 | 25.1 | 258 | – | –
C=C(Cc1nc(-c2ccc(O[C@H](C)CC)cc2)no1)C(=O)O [Example 144, (R)-2-((3-(4-(sec-butoxy)phenyl)-1,2,4-oxadiazol-5-yl)methyl)acrylic acid] | – | – | – | – | – | 31.1 | 139 | 28.4 | 167 | > 100 | –
C=C(Cc1nc(-c2ccc(OC3CCCC3)cc2)no1)C(=O)O [Example 143, 2-((3-(4-cyclopentyloxyphenyl)-1,2,4-oxadiazol-5-yl)methyl)acrylic acid] | – | – | – | – | 22.1 | 14.5 | 195 | 12 | 243 | – | –
C=C(Cc1noc(Cc2ccc(CCCC)cc2)n1)C(=O)O [Example 95, 2-((5-(4-butylbenzyl)-1,2,4-oxadiazol-3-yl)methyl)acrylic acid] | – | – | – | – | > 31.6 | 3.9 | 183 | 2.8 | 217 | – | –
